± gives the expanded uncertainty stated by the source.
Experiment: xn = mol fraction of the nth substance listed
Details: 96.7 kPa, Liquid; for viscosity: Capillary tube (Ostwald / Ubbelohde) method; for mass density: Vibrating tube method

CCCCCCn1cc[n+](C)c1.[Cl-] [1-hexyl-3-methylimidazolium chloride] + C[S+](C)[O-]
Details | mass density [kg/m3] | viscosity [mPa·s]
303.15 K, x1 = 0.141 | 1078.5 ± 2.2 | 6.523 ± 1
303.15 K, x1 = 0.278 | 1068.64 ± 2.2 | 23.07 ± 3.6
303.15 K, x1 = 0.366 | 1063.06 ± 2.2 | 54.37 ± 8.5
303.15 K, x1 = 0.472 | 1057.13 ± 2.2 | 134.28 ± 21
303.15 K, x1 = 0.606 | 1050.34 ± 2.2 | 343.91 ± 53
303.15 K, x1 = 0.773 | 1043.22 ± 2.2 | 806.64 ± 130
303.15 K, x1 = 0.878 | 1039.66 ± 2.2 | 2111.1 ± 350
303.15 K, x1 = 1 | 1036.07 ± 2.2 | 5718.5 ± 960
308.15 K, x1 = 0.141 | 1074.26 ± 2.2 | 5.691 ± 0.89
308.15 K, x1 = 0.278 | 1064.88 ± 2.2 | 18.67 ± 2.9
308.15 K, x1 = 0.366 | 1059.5 ± 2.2 | 41.74 ± 6.5
308.15 K, x1 = 0.472 | 1053.74 ± 2.2 | 100.12 ± 15
308.15 K, x1 = 0.606 | 1047.15 ± 2.2 | 242.91 ± 37
308.15 K, x1 = 0.773 | 1040.19 ± 2.2 | 554.65 ± 87
308.15 K, x1 = 0.878 | 1036.71 ± 2.2 | 1348.9 ± 220
308.15 K, x1 = 1 | 1033.22 ± 2.2 | 3430.8 ± 560
313.15 K, x1 = 0.141 | 1070.08 ± 2.2 | 4.951 ± 0.77
313.15 K, x1 = 0.278 | 1061.15 ± 2.2 | 15.46 ± 2.4
313.15 K, x1 = 0.366 | 1055.94 ± 2.2 | 33.33 ± 5.2
313.15 K, x1 = 0.472 | 1050.36 ± 2.2 | 76.29 ± 12
313.15 K, x1 = 0.606 | 1043.96 ± 2.2 | 176.38 ± 27
313.15 K, x1 = 0.773 | 1037.17 ± 2.2 | 384.99 ± 60
313.15 K, x1 = 0.878 | 1033.77 ± 2.2 | 895.04 ± 140
313.15 K, x1 = 1 | 1030.38 ± 2.2 | 2146.1 ± 350
318.15 K, x1 = 0.141 | 1065.87 ± 2.2 | 4.385 ± 0.68
318.15 K, x1 = 0.278 | 1057.41 ± 2.2 | 12.95 ± 2
318.15 K, x1 = 0.366 | 1052.4 ± 2.2 | 26.72 ± 4.1
318.15 K, x1 = 0.472 | 1046.99 ± 2.2 | 58.57 ± 9
318.15 K, x1 = 0.606 | 1040.76 ± 2.2 | 130.64 ± 20
318.15 K, x1 = 0.773 | 1034.12 ± 2.2 | 274.48 ± 42
318.15 K, x1 = 0.878 | 1030.8 ± 2.2 | 607.51 ± 96
318.15 K, x1 = 1 | 1027.56 ± 2.2 | 1390.4 ± 220
323.15 K, x1 = 0.141 | 1061.67 ± 2.2 | 3.892 ± 0.6
323.15 K, x1 = 0.278 | 1053.68 ± 2.1 | 10.99 ± 1.7
323.15 K, x1 = 0.366 | 1048.87 ± 2.1 | 21.9 ± 3.4
323.15 K, x1 = 0.472 | 1043.65 ± 2.1 | 46.32 ± 7.1
323.15 K, x1 = 0.606 | 1037.58 ± 2.1 | 98.7 ± 15
323.15 K, x1 = 0.773 | 1031.12 ± 2.2 | 201.06 ± 31
323.15 K, x1 = 0.878 | 1027.89 ± 2.2 | 425.84 ± 67
323.15 K, x1 = 1 | 1024.75 ± 2.2 | 928.1 ± 150
328.15 K, x1 = 0.141 | 1057.48 ± 2.1 | 3.493 ± 0.54
328.15 K, x1 = 0.278 | 1049.95 ± 2.1 | 9.439 ± 1.4
328.15 K, x1 = 0.366 | 1045.35 ± 2.1 | 18.22 ± 2.8
328.15 K, x1 = 0.472 | 1040.31 ± 2.1 | 37.12 ± 5.7
328.15 K, x1 = 0.606 | 1034.41 ± 2.1 | 76.27 ± 12
328.15 K, x1 = 0.773 | 1028.15 ± 2.2 | 150.51 ± 23
328.15 K, x1 = 0.878 | 1025.02 ± 2.2 | 306.13 ± 48
328.15 K, x1 = 1 | 1021.92 ± 2.2 | 638.79 ± 99
333.15 K, x1 = 0.141 | 1053.31 ± 2.1 | 3.154 ± 0.48
333.15 K, x1 = 0.278 | 1046.23 ± 2.1 | 8.18 ± 1.2
333.15 K, x1 = 0.366 | 1041.84 ± 2.1 | 15.34 ± 2.4
333.15 K, x1 = 0.472 | 1036.99 ± 2.1 | 30.3 ± 4.6
333.15 K, x1 = 0.606 | 1031.26 ± 2.1 | 60.05 ± 9.1
333.15 K, x1 = 0.773 | 1025.19 ± 2.1 | 114.9 ± 17
333.15 K, x1 = 0.878 | 1022.16 ± 2.2 | 227.29 ± 35
333.15 K, x1 = 1 | 1019.13 ± 2.2 | 453.59 ± 70
338.15 K, x1 = 0.141 | 1049.14 ± 2.1 | 2.85 ± 0.44
338.15 K, x1 = 0.278 | 1042.51 ± 2.1 | 7.175 ± 1.1
338.15 K, x1 = 0.366 | 1038.35 ± 2.1 | 13.14 ± 2
338.15 K, x1 = 0.472 | 1033.67 ± 2.1 | 25.52 ± 3.9
338.15 K, x1 = 0.606 | 1028.12 ± 2.1 | 48.07 ± 7.3
338.15 K, x1 = 0.773 | 1022.24 ± 2.1 | 89.02 ± 14
338.15 K, x1 = 0.878 | 1019.29 ± 2.2 | 169.96 ± 26
338.15 K, x1 = 1 | 1016.38 ± 2.2 | 327.52 ± 50
343.15 K, x1 = 0.141 | 1045.01 ± 2.1 | 2.594 ± 0.4
343.15 K, x1 = 0.278 | 1038.81 ± 2.1 | 6.291 ± 0.96
343.15 K, x1 = 0.366 | 1034.87 ± 2.1 | 11.28 ± 1.7
343.15 K, x1 = 0.472 | 1030.39 ± 2.1 | 20.88 ± 3.2
343.15 K, x1 = 0.606 | 1025 ± 2.1 | 39.06 ± 5.9
343.15 K, x1 = 0.773 | 1019.29 ± 2.1 | 70.28 ± 11
343.15 K, x1 = 0.878 | 1016.44 ± 2.1 | 129.41 ± 20
343.15 K, x1 = 1 | 1013.65 ± 2.2 | 243.04 ± 37
348.15 K, x1 = 0.141 | 1040.88 ± 2.1 | 2.378 ± 0.36
348.15 K, x1 = 0.278 | 1035.11 ± 2.1 | 5.597 ± 0.85
348.15 K, x1 = 0.366 | 1031.39 ± 2.1 | 9.738 ± 1.5
348.15 K, x1 = 0.472 | 1027.11 ± 2.1 | 17.65 ± 2.7
348.15 K, x1 = 0.606 | 1021.88 ± 2.1 | 32.05 ± 4.8
348.15 K, x1 = 0.773 | 1016.35 ± 2.1 | 56.52 ± 8.5
348.15 K, x1 = 0.878 | 1013.59 ± 2.1 | 100.3 ± 15
348.15 K, x1 = 1 | 1010.91 ± 2.2 | 183.45 ± 28
353.15 K, x1 = 0.141 | 1036.68 ± 2.1 | 2.184 ± 0.33
353.15 K, x1 = 0.278 | 1031.43 ± 2.1 | 4.998 ± 0.76
353.15 K, x1 = 0.366 | 1027.93 ± 2.1 | 8.538 ± 1.3
353.15 K, x1 = 0.472 | 1023.84 ± 2.1 | 15.07 ± 2.3
353.15 K, x1 = 0.606 | 1018.78 ± 2.1 | 26.7 ± 4
353.15 K, x1 = 0.773 | 1013.43 ± 2.1 | 45.71 ± 6.9
353.15 K, x1 = 0.878 | 1010.75 ± 2.1 | 81.75 ± 12
353.15 K, x1 = 1 | 1008.18 ± 2.2 | 140.06 ± 21

Reference: the NIST ThermoML archive (doi:10.1016/j.jct.2017.07.016)
